Measurements taken from article PMC4450297, “Screening Active Compounds from Garcinia Species Native to China Reveals Novel Compounds Targeting the STAT/JAK Signaling Pathway” (BioMed Research International, 2015).

Assays:
Experiment in all cases: Cell panel screen (CellTiter-Glo)
Assay type in all cases: cell-based, human
HCC1937 = HCC1937 (Breast), 20 micromolar, 72 hrs
Procedure, shortened: (§1)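 Here, cancer cells cultured in medium with 10% FBS are treated for 72 h with each compound at 20 μM final. Viability is measured by ATP-dependent luminescence, and growth inhibition is calculated as a percentage against vehicle-only wells minus cell-free background.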

C8166 = C8166 (Leukemia), 20 micromolar, 72 hrs
Procedure, shortened: as §1

C3A = C3A (Liver), 20 micromolar, 72 hrs
Procedure, shortened: as §1

NCI-H1770 = NCI-H1770 (Lung), 20 micromolar, 72 hrs
Procedure, shortened: as §1

CW-2 = CW-2 (Colon), 20 micromolar, 72 hrs
Procedure, shortened: as §1

NCI-H2347 = NCI-H2347 (Lung), 20 micromolar, 72 hrs
Procedure, shortened: as §1

HEC-1-A = HEC-1-A (Uterus), 20 micromolar, 72 hrs
Procedure, shortened: as §1

NCI-H28 = NCI-H28 (Lung), 20 micromolar, 72 hrs
Procedure, shortened: as §1

TCCSUP = TCCSUP (Urinary bladder), 20 micromolar, 72 hrs
Procedure, shortened: as §1

A704 = A704 (Kidney), 20 micromolar, 72 hrs
Procedure, shortened: as §1

BT-549 = BT-549 (Breast), 20 micromolar, 72 hrs
Procedure, shortened: as §1

NCI-H2405 = NCI-H2405 (Lung), 20 micromolar, 72 hrs
Procedure, shortened: as §1

CCF-STTG1 = CCF-STTG1 (Brain), 20 micromolar, 72 hrs
Procedure, shortened: as §1

MSTO-211-H = MSTO-211-H (Lung), 20 micromolar, 72 hrs
Procedure, shortened: as §1

HGC-27 = HGC-27 (Stomach), 20 micromolar, 72 hrs
Procedure, shortened: as §1

NCI-H1623 = NCI-H1623 (Lung), 20 micromolar, 72 hrs
Procedure, shortened: as §1

HT-1197 = HT-1197 (Urinary bladder), 20 micromolar, 72 hrs
Procedure, shortened: as §1

NCI-H1694 = NCI-H1694 (Lung), 20 micromolar, 72 hrs
Procedure, shortened: as §1

M059J = M059J (Brain), 20 micromolar, 72 hrs
Procedure, shortened: as §1

ZR-75-30 = ZR-75-30 (Breast), 20 micromolar, 72 hrs
Procedure, shortened: as §1

Bel-7402 = Bel-7402 (Liver), 20 micromolar, 72 hrs
Procedure, shortened: as §1

HCC1395 = HCC1395 (Breast), 20 micromolar, 72 hrs
Procedure, shortened: as §1

J82 = J82 (Urinary bladder), 20 micromolar, 72 hrs
Procedure, shortened: as §1

A498 = A498 (listed under Lung), 20 micromolar, 72 hrs
Procedure, shortened: as §1

Panc 03.27 = Panc 03.27 (Pancreas), 20 micromolar, 72 hrs
Procedure, shortened: as §1

ChaGo-K-1 = ChaGo-K-1 (Lung), 20 micromolar, 72 hrs
Procedure, shortened: as §1

T47D = T47D (Breast), 20 micromolar, 72 hrs
Procedure, shortened: as §1

BT-474 = BT-474 (Breast), 20 micromolar, 72 hrs
Procedure, shortened: as §1

HPAF-II = HPAF-II (Pancreas), 20 micromolar, 72 hrs
Procedure, shortened: as §1

HCC1569 = HCC1569 (Breast), 20 micromolar, 72 hrs
Procedure, shortened: as §1

NCI-H524 = NCI-H524 (Lung), 20 micromolar, 72 hrs
Procedure, shortened: as §1

SW13 = SW13 (Adrenal gland), 20 micromolar, 72 hrs
Procedure, shortened: as §1

Colo 205 = conditions: Colo 205, 20 micromolar, 72 hrs
Procedure, shortened: as §1

HCC1599 = HCC1599 (Breast), 20 micromolar, 72 hrs
Procedure, shortened: as §1

T98G = T98G (Brain), 20 micromolar, 72 hrs
Procedure, shortened: as §1

RL95 = RL95 (Uterus), 20 micromolar, 72 hrs
Procedure, shortened: as §1

[1] = Homo sapiens, read-out: Percent Inhibition

Work on `CC(C)=CCc1c(O)cc2oc3c(CC=C(C)C)c(O)c(O)c(CC=C(C)C)c3c(=O)c2c1O` [bn-1, Garcinone E] yielded an inhibition at 20 µM (HCC1937; [1]) of 97%, an inhibition at 20 µM (C8166; [1]) of 99% and an inhibition at 20 µM (C3A; [1]) of 90%. It also gave an inhibition at 20 µM (NCI-H1770; [1]) of 93%, an inhibition at 20 µM (CW-2; [1]) of 99% and an inhibition at 20 µM (NCI-H2347; [1]) of 79%. The inhibition at 20 µM (HEC-1-A; [1]) was 87%, the inhibition at 20 µM (NCI-H28; [1]) was 95% and the inhibition at 20 µM (TCCSUP; Homo sapiens, TCC-SUP, read-out: Percent Inhibition) was 97%. For the same molecule, the inhibition at 20 µM (A704; [1]) was 98%, the inhibition at 20 µM (BT-549; [1]) was 98% and the inhibition at 20 µM (NCI-H2405; [1]) was 93%. For the same molecule, the inhibition at 20 µM (CCF-STTG1; [1]) was 89%, the inhibition at 20 µM (MSTO-211-H; [1]) was 98% and the inhibition at 20 µM (HGC-27; [1]) was 99%. The inhibition at 20 µM (NCI-H1623; [1]) was 91%, the inhibition at 20 µM (HT-1197; Homo sapiens, HT1197, read-out: Percent Inhibition) was 97% and the inhibition at 20 µM (NCI-H1694; [1]) was 100%. The inhibition at 20 µM (M059J; [1]) was 95%, the inhibition at 20 µM (ZR-75-30; [1]) was 99% and the inhibition at 20 µM (Bel-7402; [1]) was 98%. The inhibition at 20 µM (HCC1395; [1]) was 100%, the inhibition at 20 µM (J82; [1]) was 98% and the inhibition at 20 µM (A498; [1]) was 98%. For the same molecule, the inhibition at 20 µM (Panc 03.27; Homo sapiens, PANC-03-27, read-out: Percent Inhibition) was 90%, the inhibition at 20 µM (ChaGo-K-1; [1]) was 99% and the inhibition at 20 µM (T47D; [1]) was 82%. It also gave an inhibition at 20 µM (BT-474; [1]) of 87%, an inhibition at 20 µM (HPAF-II; [1]) of 90% and an inhibition at 20 µM (HCC1569; [1]) of 96%. For the same molecule, the inhibition at 20 µM (NCI-H524; [1]) was 100%, the inhibition at 20 µM (SW13; [1]) was 97% and the inhibition at 20 µM (Colo 205; [1]) was 98%. The inhibition at 20 µM (HCC1599; [1]) was 98%, the inhibition at 20 µM (T98G; [1]) was 100% and the inhibition at 20 µM (RL95; [1]) was 99%.

In the case of `COC(=O)C1OC(Oc2cc(O)c3c(=O)cc(-c4ccc(O)cc4)oc3c2)C(O)C(O)C1O` (stereo not drawn) [WZ-6], the “Percent Inhibition” value (HCC1937) is reported as 3%, the “Percent Inhibition” value (C8166) is reported as -15% and the “Percent Inhibition” value (C3A) is reported as -1%. For the same molecule, the “Percent Inhibition” value (NCI-H1770) was -1%, the “Percent Inhibition” value (CW-2) was 12% and the “Percent Inhibition” value (NCI-H2347) was -3%. For the same molecule, the “Percent Inhibition” value (HEC-1-A) was 1%, the “Percent Inhibition” value (NCI-H28) was 6% and the “Percent Inhibition” value (TCCSUP) was 8%. The “Percent Inhibition” value (A704) was -9%, the “Percent Inhibition” value (BT-549) was -16% and the “Percent Inhibition” value (NCI-H2405) was -12%. The “Percent Inhibition” value (CCF-STTG1) was -3%, the “Percent Inhibition” value (MSTO-211-H) was 6% and the “Percent Inhibition” value (HGC-27) was -8%. For the same molecule, the “Percent Inhibition” value (NCI-H1623) was -8%, the “Percent Inhibition” value (HT-1197) was 16% and the “Percent Inhibition” value (NCI-H1694) was -9%. The “Percent Inhibition” value (M059J) was 2%, the “Percent Inhibition” value (ZR-75-30) was -2% and the “Percent Inhibition” value (Bel-7402) was 1%. For the same molecule, the “Percent Inhibition” value (HCC1395) was 21%, the “Percent Inhibition” value (J82) was -5% and the “Percent Inhibition” value (A498) was 13%. For the same molecule, the “Percent Inhibition” value (Panc 03.27) was -4%, the “Percent Inhibition” value (ChaGo-K-1) was -16% and the “Percent Inhibition” value (T47D) was 4%. The “Percent Inhibition” value (BT-474) was -12%, the “Percent Inhibition” value (HPAF-II) was -14% and the “Percent Inhibition” value (HCC1569) was -18%. For the same molecule, the “Percent Inhibition” value (NCI-H524) was -11%, the “Percent Inhibition” value (SW13) was 1% and the “Percent Inhibition” value (Colo 205) was 4%. The “Percent Inhibition” value (HCC1599) was 12%, the “Percent Inhibition” value (T98G) was 4% and the “Percent Inhibition” value (RL95) was -5%.

In the case of `COc1cc(O)c2c(=O)c3c(CC=C(C)C)cc(O)c(O)c3oc2c1CC=C(C)CCC=C(C)C` [Go-23], the “Percent Inhibition” value (HCC1937) is reported as 96%, the “Percent Inhibition” value (C8166) is reported as 95% and the “Percent Inhibition” value (C3A) is reported as 77%. For the same molecule, the “Percent Inhibition” value (NCI-H1770) was 98%, the “Percent Inhibition” value (CW-2) was 97% and the “Percent Inhibition” value (NCI-H2347) was 68%. The “Percent Inhibition” value (HEC-1-A) was 76%, the “Percent Inhibition” value (NCI-H28) was 82% and the “Percent Inhibition” value (TCCSUP) was 93%. The “Percent Inhibition” value (A704) was 96%, the “Percent Inhibition” value (BT-549) was 96% and the “Percent Inhibition” value (NCI-H2405) was 98%. The “Percent Inhibition” value (CCF-STTG1) was 87%, the “Percent Inhibition” value (MSTO-211-H) was 95% and the “Percent Inhibition” value (HGC-27) was 97%. The “Percent Inhibition” value (NCI-H1623) was 92%, the “Percent Inhibition” value (HT-1197) was 96% and the “Percent Inhibition” value (NCI-H1694) was 98%. For the same molecule, the “Percent Inhibition” value (M059J) was 93%, the “Percent Inhibition” value (ZR-75-30) was 95% and the “Percent Inhibition” value (Bel-7402) was 96%. The “Percent Inhibition” value (HCC1395) was 97%, the “Percent Inhibition” value (J82) was 97% and the “Percent Inhibition” value (A498) was 94%. The “Percent Inhibition” value (Panc 03.27) was 92%, the “Percent Inhibition” value (ChaGo-K-1) was 94% and the “Percent Inhibition” value (T47D) was 94%. For the same molecule, the “Percent Inhibition” value (BT-474) was 70%, the “Percent Inhibition” value (HPAF-II) was 82% and the “Percent Inhibition” value (HCC1569) was 97%. The “Percent Inhibition” value (NCI-H524) was 98%, the “Percent Inhibition” value (SW13) was 96% and the “Percent Inhibition” value (Colo 205) was 96%. For the same molecule, the “Percent Inhibition” value (HCC1599) was 98%, the “Percent Inhibition” value (T98G) was 98% and the “Percent Inhibition” value (RL95) was 97%.
